Measured values taken from patent US10961215B2, “N-aryl and N-heteroaryl piperidine derivatives as liver X receptor beta agonists, compositions, and their use” (Merck Sharp & Dohme Corp., priority 2016, dated 2021).

Assays:
[1] = molecular target: T1, GST tagged LXRalpha LBD (ligand binding domain) (Homo sapiens, UniProt Q13133); test: LanthaScreen TR-FRET Liver X Receptor Coactivator Assay, LXR alpha-LBD (co-activator recruitment; IP and % Emax relative to T0901317); assay type: biochemical; details: for EC50 / LXR alpha IP (nM): Inflection Point of co-activator recruitment, LXR alpha-LBD, TR-FRET; for Emax: efficacy at max dose in relation to reference T0901317, LXR alpha-LBD, read-out: LXR alpha actiivty at max dose (%)
T1 construct: purchased Invitrogen pv4655
T1 sequence (Q13133 209-447 limits assumed): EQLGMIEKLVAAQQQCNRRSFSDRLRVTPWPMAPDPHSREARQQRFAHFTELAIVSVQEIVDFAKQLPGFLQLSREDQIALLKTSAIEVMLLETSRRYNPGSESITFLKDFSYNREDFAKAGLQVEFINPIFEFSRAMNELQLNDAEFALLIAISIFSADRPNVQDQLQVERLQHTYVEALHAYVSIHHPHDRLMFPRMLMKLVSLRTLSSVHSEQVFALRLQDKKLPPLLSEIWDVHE
Experimental: (§1) Potency (Inflection Point, IP) and efficacy (Emax) are evaluated via compound-induced co-activator recruitment to glutathione-S-transferase (GST) tagged LXRbeta and LXRalpha LBD (ligand binding domain) proteins in relation to reference dual agonist compound T0901317 (N-(2,2,2-Trifluoroethyl)-N-[4-[2,2,2-trifluoro-1-hydroxy-1-(trifluoromethyl)ethyl]phenyl]benzenesulfonamide) using the LanthaScreen™ TR-FRET Liver X Receptor Coactivator Assays according to manufacturer's instructions (Invitrogen catalog number pv4658.pps and pv4655). While running the LanthaScreen™ TR-FRET Liver X Receptor Coactivator Assay, LXR alpha-LBD or LXR beta-LBD was added to ligand test compounds followed by addition of a mixture of a fluorescein-labelled coactivator peptide and terbium-conjugated anti-GST antibody. After an incubation period at room temperature, TR-FRET (time-resolved fluorescence resonance energy transfer) was measured using a filter-based instrument capable of TR-FRET, e.g. PerkinElmer Envision.

[2] = molecular target: T2, GST tagged LXRbeta LBD (ligand binding domain) (Homo sapiens, UniProt P55055); test: LanthaScreen TR-FRET Liver X Receptor Coactivator Assay, LXR beta-LBD (co-activator recruitment; IP and % Emax relative to T0901317); assay type: biochemical; details: for EC50: Inflection Point of co-activator recruitment, LXR beta-LBD, TR-FRET; for Emax: efficacy at max dose in relation to reference T0901317, LXR beta-LBD, read-out: LXR beta actiivty at max dose (%)
T2 construct: purchased Invitrogen pv4658.pps
T2 sequence (P55055 222-460 limits assumed): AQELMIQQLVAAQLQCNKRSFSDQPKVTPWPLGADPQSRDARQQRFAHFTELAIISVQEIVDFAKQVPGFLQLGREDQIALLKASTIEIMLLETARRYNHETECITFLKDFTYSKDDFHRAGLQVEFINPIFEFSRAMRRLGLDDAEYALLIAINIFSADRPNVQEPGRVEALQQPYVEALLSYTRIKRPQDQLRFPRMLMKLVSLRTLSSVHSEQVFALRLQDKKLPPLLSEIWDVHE
Experimental: as §1

Row | Structure (SMILES) | EC50 [1] [nM] | Emax [1] [%] | EC50 [2] [nM] | Emax [2] [%] | LXR alpha IP (nM) [1]
1 | CN(C)C(=O)c1ccc(N2CCC([C@H]3C[C@H]3CN(C)C(=O)[C@](O)(c3cccc(OC(F)(F)F)c3)C(F)(F)F)CC2)nc1Cl [Example 15-4, 2-chloro-N,N-dimethyl-6-(4-((1R,2R)-2-(((R)-3,3,3-trifluoro-2-hydroxy-N-methyl-2-(3-(trifluoromethoxy)phenyl)propanamido)methyl)cyclopropyl)piperidin-1-yl)nicotinamide] | 623 | 15 | 23 | 50 | 
2 | CN[C@@](C(=O)N(C)CCCC1CCN(c2ccc(C(=O)N(C)C)c(Cl)n2)CC1)(c1cccc(OC)c1)C(F)(F)F [Example 1-57, (R)-2-chloro-N,N-dimethyl-6-(4-(3-(3,3,3-trifluoro-2-(3-methoxyphenyl)-N-methyl-2-(methylamino)propanamido)propyl)piperidin-1-yl)nicotinamide] |  | 0 | 268 | 48 | No IP
3 | CN(C)C(=O)c1ccc(N2CCC(CCCN(C)C(=O)[C@@]3(c4ccccc4Cl)CCCO3)CC2)nc1Cl [Example 1-64, (S)-2-chloro-6-(4-(3-(2-(2-chlorophenyl)-N-methyltetrahydrofuran-2-carboxamido)propyl)piperidin-1-yl)-N,N-dimethylnicotinamide] |  | 0 | 285 | 26 | No IP
4 | COc1cccc([C@@](O)(C(=O)N(C)CCCC2CCN(c3ccc(C(=O)NC4CC4)c(Cl)n3)CC2)C(F)(F)F)c1 [Example 2-2, (R)-2-chloro-N-cyclopropyl-6-(4-(3-(3,3,3-trifluoro-2-hydroxy-2-(3-methoxyphenyl)-N-methylpropanamido)propyl)piperidin-1-yl)nicotinamide] |  | 7 | 688 | 44 | No IP
5 | COc1cccc([C@@](O)(C(=O)N(C)C[C@@H]2C[C@@H]2CC2CCN(c3ccc(C(=O)N(C)C)c(Cl)n3)CC2)C(F)(F)F)c1 [Example 18-2, 2-chloro-N,N-dimethyl-6-(4-(((1S,2R)-2-(((R)-3,3,3-trifluoro-2-hydroxy-2-(3-methoxyphenyl)-N-methylpropanamido)methyl)cyclopropyl)methyl)piperidin-1-yl)nicotinamdie] |  | 0 | 124 | 44 | No IP
6 | CCc1cccc([C@@](O)(C(=O)NCCCC2CCN(c3ccc(C(=O)N(C)C)c(Cl)n3)CC2)C(F)(F)F)c1 [Example 5-17, (R)-2-chloro-6-(4-(3-(2-(3-ethylphenyl)-3,3,3-trifluoro-2-hydroxypropanamido)propyl)piperidin-1-yl)-N,N-dimethylnicotinamide] |  | 0 | 401 | 43 | No IP
7 | CN(C)C(=O)c1ccc(N2CCC3(CC2)C[C@@H]3CCN(C)C(=O)[C@](O)(c2ccccc2)C(F)(F)F)cc1Cl [Example 7-5, 2-chloro-N,N-dimethyl-4-((R)-1-(2-((R)-3,3,3-trifluoro-2-hydroxy-N-methyl-2-phenylpropanamido)ethyl)-6-azaspiro[2.5]octan-6-yl)benzamide] | 381 | 55 | 11 | 68 | 
8 | COc1cccc([C@@](O)(C(=O)N[C@@H](C)CCC2CCN(c3ccc(C(=O)N(C)C)c(Cl)n3)CC2)C(F)(F)F)c1 [Example 6-1, 2-chloro-N,N-dimethyl-6-(4-((S)-3-((R)-3,3,3-trifluoro-2-hydroxy-2-(3-methoxyphenyl)propanamido)butyl)piperidin-1-yl)nicotinamide] |  | 0 | 379 | 25 | No IP
9 | CN(CC[C@H]1CC12CCN(c1ccc(C(=O)NC3CC3)c(Cl)c1)CC2)C(=O)[C@](O)(c1ccccc1)C(F)(F)F [Example 7-11, 2-chloro-N-cyclopropyl-4-((R)-1-(2-((R)-3,3,3-trifluoro-2-hydroxy-N-methyl-2-phenylpropanamido)ethyl)-6-azaspiro[2.5]octan-6-yl)benzamide] | 1150 | 42 | 81 | 60 | 
10 | COc1cccc([C@@](O)(C(=O)N(C)CC[C@@H]2CC23CCN(c2ccc(C(=O)NC(C)C)c(Cl)c2)CC3)C(F)(F)F)c1 [Example 7-23, 2-chloro-N-isopropyl-4-((S)-1-(2-((R)-3,3,3-trifluoro-2-hydroxy-2-(3-methoxyphenyl)-N-methylpropanamido)ethyl)-6-azaspiro[2.5]octan-6-yl)benzamide] |  | 7 | 2070 | 32 | No IP
11 | CN(C)C(=O)c1ccc(N2CCC3(CC2)CC3CCCN(C)C(=O)[C@](O)(c2ccccc2)C(F)(F)F)cc1Cl (stereo partly drawn) [Example 7-33, 2-chloro-N,N-dimethyl-4-(1-(3-((R)-3,3,3-trifluoro-2-hydroxy-N-methyl-2-phenylpropanamido)propyl)-6-azaspiro[2.5]octan-6-yl)benzamide] |  | 0 | 136 | 44 | No IP
12 | COc1ccccc1[C@]1(C(=O)N(C)CCCC2CCN(c3ccc(C(=O)N(C)C)c(Cl)n3)CC2)CCCO1 [Example 1-59, (S)-2-chloro-6-(4-(3-(2-(2-methoxyphenyl)-N-methyltetrahydrofuran-2-carboxamido)propyl)piperidin-1-yl)-N,N-dimethylnicotinamide] | 2860 | 24 | 118 | 80 | 
13 | CC(C)[C@](O)(C(=O)N(C)CCCC1CCN(c2ccc(C(=O)N(C)C)c(Cl)n2)CC1)C(F)(F)F [Example 1-4, (S)-2-chloro-6-(4-(3-(2-hydroxy-N,3-dimethyl-2-(trifluoromethyl)butanamido)propyl)piperidin-1-yl)-N,N-dimethylnicotinamide] | 1180 | 52 | 82 | 92 | 
14 | CN(C)C(=O)c1ccc(N2CCC(CCCN(C)C(=O)[C@@](O)(c3cccc(OC(F)(F)F)c3)C(F)(F)F)CC2)nc1Cl [Example 1-39, (S)-2-chloro-N,N-dimethyl-6-(4-(3-(3,3,3-trifluoro-2-hydroxy-N-methyl-2-(3-(trifluoromethoxy)phenyl)propanamido)propyl)piperidin-1-yl)nicotinamide] | 11100 | 34 | 567 | 53 | 
15 | CN(C)C(=O)c1ccc(N2CCC(CCCN(C)C(=O)C3(c4ccccc4)CCCC3)CC2)nc1Cl [Example 1-42, 2-chloro-N,N-dimethyl-6-(4-(3-(N-methyl-1-phenylcyclopentanecarboxamido)pro-pyl)piperidin-1-yl)nicotinamide] |  | 11 | 92 | 64 | No IP
16 | COc1cccc([C@@]2(C(=O)N(C)CCCC3CCN(c4ccc(C(=O)N(C)C)c(Cl)n4)CC3)CCCO2)c1 [Example 1-47, (R)-2-chloro-6-(4-(3-(2-(3-methoxyphenyl)-N-methyltetrahydrofuran-2-carboxamido)propyl)piperidin-1-yl)-N,N-dimethylnicotinamide] |  | 11 | 100 | 56 | No IP
17 | COc1cccc([C@@](O)(C(=O)N(C)CCCC2CCN(c3ccc(C(=O)N(C)C)c(OC)n3)CC2)C(F)(F)F)c1 [Example 2-18, (R)-2-methoxy-N,N-dimethyl-6-(4-(3-(3,3,3-trifluoro-2-hydroxy-2-(3-methoxyphenyl)-N-methylpropanamido)propyl)piperidin-1-yl)nicotinamide] |  | 0 | 523 | 47 | No IP
18 | CN(C)C(=O)c1ccc(N2CCC(CCCN(C)C(=O)[C@@]3(c4cccc(Cl)c4)CCCO3)CC2)nc1Cl [Example 1-63, (S)-2-chloro-6-(4-(3-(2-(3-chlorophenyl)-N-methyltetrahydrofuran-2-carboxamido)propyl)piperidin-1-y)-N,N-dimethylnicotinamide] |  | 0 | 368 | 40 | No IP
